Legend:
HCT-116 = test: Antiproliferative activity against human HCT116 cells incubated for 48 hrs by SRB assay; type: functional; details: HCT-116, 48 h
MDA-MB-231 = test: Antiproliferative activity against human MDA-MB-231 cells incubated for 48 hrs by SRB assay; type: functional; details: MDA-MB-231, 48 h

SMILES	GI50 (HCT-116) [µM]	GI50 (MDA-MB-231) [µM]
O=C(Nc1cccc2ncccc12)c1ccc(CNC2=C(Cl)C(=O)c3ccccc3C2=O)cc1	> 10	> 10
O=C(Nc1cccnc1)c1ccc(CNC2=C(Cl)C(=O)c3ccccc3C2=O)cc1	> 10	> 10
Nc1ccn(C(=O)c2ccc(CNC3=C(Cl)C(=O)c4ccccc4C3=O)cc2)n1	> 10	> 10
O=C(Nc1ccccc1)c1ccc(CNC2=C(Cl)C(=O)c3ccccc3C2=O)cc1	> 10	> 10
O=C(Nc1ccc2[nH]ncc2c1)c1ccc(CNC2=C(Cl)C(=O)c3ccccc3C2=O)cc1	> 10	> 10

The next lines start with the values.

GI50 (HCT-116) [µM]	GI50 (MDA-MB-231) [µM]	SMILES
5.5	9.2	O=C(Nc1cnccn1)c1ccc(CNC2=C(Cl)C(=O)c3ccccc3C2=O)cc1
> 10	> 10	O=C(Nc1ccc2[nH]cnc2c1)c1ccc(CNC2=C(Cl)C(=O)c3ccccc3C2=O)cc1
> 10	> 10	O=C(Nc1ccc(F)cc1)c1ccc(CNC2=C(Cl)C(=O)c3ccccc3C2=O)cc1
> 10	> 10	O=C(Nc1cnc2ccccc2c1)c1ccc(CNC2=C(Cl)C(=O)c3ccccc3C2=O)cc1

Reference: ChEMBL document CHEMBL4130444, “1,4-Naphthoquinones as inhibitors of Itch, a HECT domain-E3 ligase, and tumor growth suppressors in multiple myeloma” (Eur J Med Chem, 2017)
